Experimental data: patent publication US7291738B2 (dated 2007)

Row | melting point | Compound
1 | 173 to 175 °C | Cc1ncccc1Oc1ccc(NC(=O)Nc2ccc3[nH]c4c(c3c2)CCN(C(=O)OC(C)(C)C)CC4)cn1
2 | 205 to 207 °C | Cc1ncccc1Oc1ccc(NC(=O)Nc2ccc3[nH]c4c(c3c2)CCNCC4)cn1
3 | 159 to 160 °C | Cc1ncccc1Oc1ccc(NC(=O)N2CCc3c(n(C)c4ccccc34)CC2)cn1
4 | 136 to 138 °C | Cc1ncccc1Oc1ccc(NC(=O)NCCc2ccccc2)cn1
